Residues, ends and D or L forms follow the SMILES beside them. *: point of attachment. Cbz = O=C(OCc1ccccc1)*

The subject of the assay is Htt or mtHtt. Put plainly: Htt/mtHtt protein levels after proteasome or VCP inhibitor. Type of assay: cell-based, mouse. The settings on record: HdhQ or HdhQ111 cells. An excerpt:
VCP plays a central role in protein degradation by binding to its substrates.

With `CC1(C)C(N(O)C(=O)Nc2ccc(Cl)cc2)N(c2ccc(Cl)cc2)C(=O)N1CC(=O)N/N=C/C=C/c1ccc([N+](=O)[O-])o1` (centres unmarked) [Eeyarestatin I], the “Htt or mtHtt protein levels” value is recorded as “did not affect Htt or mtHtt protein levels”.

For the molecule `CC(C)C[C@@H](C=O)NC(=O)[C@H](CC(C)C)NC(=O)[C@H](CC(C)C)NC(=O)OCc1ccccc1` [MG132] (Cbz-Leu-Leu-Leu-aldehyde), the “Htt or mtHtt protein levels” value was “did not affect Htt or mtHtt protein levels”.

Values taken from US10143719B2, “Inhibitors of valosin-containing protein and methods of use” (CASE WESTERN RESERVE UNIVERSITY, priority 2015, dated 2018).
